Values of other authors in patent US4665052A, “Renin inhibitors containing homophe^8 and a C-terminal amide cycle” (Merck & Co., Inc., priority 1984, dated 1987).

Assays:
hog renin = conditions: after injection of hog renin into nephrectomized rats; Gross et al. 1971
[1] = system: aspartyl proteases such as pepsin, cathepsin D, and renin; conditions: selectivity

pepstatin
blood pressure in vivo (hog renin): reduce blood pressure in vivo
inhibition of other acid proteases in addition to renin [1]: inhibition of a variety of other acid proteases in addition to renin
